In publication PMC9866191, “Novel 9-Benzylaminoacridine Derivatives as Dual Inhibitors of Phosphodiesterase 5 and Topoisomerase II for the Treatment of Colon Cancer” (Molecules, 2023):

What was measured:
PDE5A = molecular target: T1, PDE5A (Homo sapiens, UniProt O76074); experiment: Phosphodiesterase 5 HTRF cGMP assay; type: biochemical; settings: for IC50: means ± S.D. (n = 4), read-out: PDE5 IC50; for inhibition at 10 µM: read-out: PDE5 % Inhibition at 10 μM
T1 construct: purchased BPS Bioscience, San Diego, CA, USA
Description: All the synthesized acridine derivatives were tested for their in vitro ability to inhibit PDE5A at a screening dose of 10 µM.
The enzyme activities of phosphodiesterase 5 (PDE5) were measured using an HTRF cGMP assay kit (Cisbio, Codolet, France). […] Afterward, the HTRF reagent (cGMP-d2 and anti-cGMP-cryptate) was added for 1 h at 25 °C, and PDE activity was assayed on an HTRF reader (Tecan Infinite F200 Pro).

[1] = tested on: panel of 60 human tumor cell lines; experiment: NCI 60-cell line one-dose screen (mean); type: cell-based; settings: mean of the 60 cell lines, single dose 10^−5 M, read-out: Mean % Growth Inhibition
Summary of the method: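 Compounds were tested at a single concentration of 10^−5 M against the NCI Developmental Therapeutic Program's 60 human tumour cell lines covering 9 tissue types. Activity is expressed as percent growth inhibition.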

786-0 = experiment: NCI-60 one-dose screen; type: cell-based; settings: Homo sapiens; 786-0, Renal Cancer panel; single dose 10^−5 M; read-out: Growth inhibition %
A549/ATCC = experiment: NCI-60 one-dose screen; type: cell-based; settings: Homo sapiens, Non-small cell lung panel, single dose 10^−5 M, read-out: Growth inhibition %
ACHN = experiment: NCI-60 one-dose screen; type: cell-based; settings: Homo sapiens, Renal Cancer panel, single dose 10^−5 M, read-out: Growth inhibition %
CAKI-1 = experiment: NCI-60 one-dose screen; type: cell-based; settings: Homo sapiens; CAKI-1, Renal Cancer panel; single dose 10^−5 M; read-out: Growth inhibition %
HCT-116 [2] = experiment: NCI-60 one-dose screen; type: cell-based; settings: Homo sapiens, read-out: Growth inhibition %
HL-60(TB) = experiment: NCI-60 one-dose screen; type: cell-based; settings: Homo sapiens, Leukemia panel, single dose 10^−5 M, read-out: Growth inhibition %
HOP-62 = experiment: NCI-60 one-dose screen; type: cell-based; settings: Homo sapiens; HOP-62, Non-small cell lung panel; single dose 10^−5 M; read-out: Growth inhibition %
HOP-92 = experiment: NCI-60 one-dose screen; type: cell-based; settings: Homo sapiens; HOP-92, Non-small cell lung panel; single dose 10^−5 M; read-out: Growth inhibition %
HS 578T = experiment: NCI-60 one-dose screen; type: cell-based; settings: Homo sapiens, Breast Cancer panel, single dose 10^−5 M, read-out: Growth inhibition %
MCF7 = experiment: NCI-60 one-dose screen; type: cell-based; settings: Homo sapiens; MCF7, Breast Cancer panel; single dose 10^−5 M; read-out: Growth inhibition %
MDA-MB-231/ATCC = experiment: NCI-60 one-dose screen; type: cell-based; settings: Homo sapiens, Breast Cancer panel, single dose 10^−5 M, read-out: Growth inhibition %
MDA-MB-435 = experiment: NCI-60 one-dose screen; type: cell-based; settings: Homo sapiens; MDA-MB-435, Melanoma panel; single dose 10^−5 M; read-out: Growth inhibition %
MDA-MB-468 = experiment: NCI-60 one-dose screen; type: cell-based; settings: Homo sapiens; MDA-MB-468, Breast Cancer panel; single dose 10^−5 M; read-out: Growth inhibition %
MOLT-4 = experiment: NCI-60 one-dose screen; type: cell-based; settings: Homo sapiens; MOLT-4, Leukemia panel; single dose 10^−5 M; read-out: Growth inhibition %
NCI-H23 = experiment: NCI-60 one-dose screen; type: cell-based; settings: Homo sapiens; NCI-H23, Non-small cell lung panel; single dose 10^−5 M; read-out: Growth inhibition %
NCI-H322M = experiment: NCI-60 one-dose screen; type: cell-based; settings: Homo sapiens, Non-small cell lung panel, single dose 10^−5 M, read-out: Growth inhibition %
NCI-H460 = experiment: NCI-60 one-dose screen; type: cell-based; settings: Homo sapiens; NCI-H460, Non-small cell lung panel; single dose 10^−5 M; read-out: Growth inhibition %
NCI-H522 = experiment: NCI-60 one-dose screen; type: cell-based; settings: Homo sapiens; NCI-H522, Non-small cell lung panel; single dose 10^−5 M; read-out: Growth inhibition %
NCI/ADR-RES = experiment: NCI-60 one-dose screen; type: cell-based; settings: Homo sapiens, Ovarian Cancer panel, single dose 10^−5 M, read-out: Growth inhibition %
OVCAR-3 = experiment: NCI-60 one-dose screen; type: cell-based; settings: Homo sapiens; OVCAR-3, Ovarian Cancer panel; single dose 10^−5 M; read-out: Growth inhibition %
OVCAR-4 = experiment: NCI-60 one-dose screen; type: cell-based; settings: Homo sapiens; OVCAR-4, Ovarian Cancer panel; single dose 10^−5 M; read-out: Growth inhibition %
SK-MEL-28 = experiment: NCI-60 one-dose screen; type: cell-based; settings: Homo sapiens; SK-MEL-28, Melanoma panel; single dose 10^−5 M; read-out: Growth inhibition %
SN12C = experiment: NCI-60 one-dose screen; type: cell-based; settings: Homo sapiens, Renal Cancer panel, single dose 10^−5 M, read-out: Growth inhibition %
SNB-75 = experiment: NCI-60 one-dose screen; type: cell-based; settings: Homo sapiens; SNB-75, CNS Cancer panel; single dose 10^−5 M; read-out: Growth inhibition %
UO-31 = experiment: NCI-60 one-dose screen; type: cell-based; settings: Homo sapiens; UO-31, Renal Cancer panel; single dose 10^−5 M; read-out: Growth inhibition %
SF-268 = experiment: NCI-60 one-dose screen; type: cell-based; settings: Homo sapiens; SF-268, CNS Cancer panel; single dose 10^−5 M; read-out: Growth inhibition %
IGROV1 = experiment: NCI-60 one-dose screen; type: cell-based; settings: Homo sapiens, IGROV-1; IGROV1, Ovarian Cancer panel; single dose 10^−5 M; read-out: Growth inhibition %
HCT-116 [3] = experiment: MTT cell proliferation assay, HCT-116; settings: for % Inhibition at 10 µM: 72 h MTT, means ± SD; for IC50: read-out: IC50 μM, 72 h MTT, means ± SD, three experiments

| SMILES | IC50 (PDE5A) [µM] | inhibition at 10 µM (PDE5A) [%] | inhibition at 10 µM [1] [%] | inhibition at 10 µM (786-0) [%] | inhibition at 10 µM (A549/ATCC) [%] | inhibition at 10 µM (ACHN) [%] | inhibition at 10 µM (CAKI-1) [%] | inhibition at 10 µM (HCT-116 [2]) [%] | inhibition at 10 µM (HL-60(TB)) [%] | inhibition at 10 µM (HOP-62) [%] | inhibition at 10 µM (HOP-92) [%] | inhibition at 10 µM (HS 578T) [%] | inhibition at 10 µM (MCF7) [%] | inhibition at 10 µM (MDA-MB-231/ATCC) [%] | inhibition at 10 µM (MDA-MB-435) [%] | inhibition at 10 µM (MDA-MB-468) [%] | inhibition at 10 µM (MOLT-4) [%] | inhibition at 10 µM (NCI-H23) [%] | inhibition at 10 µM (NCI-H322M) [%] | inhibition at 10 µM (NCI-H460) [%] | further results |
| --- | --- | --- | --- | --- | --- | --- | --- | --- | --- | --- | --- | --- | --- | --- | --- | --- | --- | --- | --- | --- | --- |
| Clc1ccc(CNc2c3ccccc3nc3ccccc23)cc1 [Compound 13, Acridin-9-yl-(4-chlorobenzyl)-amine] | > 10 | 45.3 ± 3.99 | 59.4 | 64.7 | 60.7 | 77.2 | 58.6 | 84.3 | 55.3 | 47 | 74.5 | 46.2 | 84 | 45.2 | 39.3 | 70.4 | 95.4 | 47 | 45.9 | 83.6 | inhibition at 10 µM (NCI-H522): 33.5%; inhibition at 10 µM (NCI/ADR-RES): 63.4%; inhibition at 10 µM (OVCAR-3): 48.9%; inhibition at 10 µM (OVCAR-4): 66.9%; inhibition at 10 µM (SK-MEL-28): 19.7%; inhibition at 10 µM (SN12C): 60.9%; inhibition at 10 µM (SNB-75): 31.6%; inhibition at 10 µM (UO-31): 73%; inhibition at 10 µM (SF-268): 32.1%; inhibition at 10 µM (IGROV1): 68.3%; % Inhibition at 10 µM (HCT-116 [3]): 11.67 ± 4.59% |
| Fc1cccc(CNc2c3ccccc3nc3ccccc23)c1F [Compound 20, Acridin-9-yl-(2,3-difluorobenzyl)-amine] | 7.25 ± 2.21 | 57.9 ± 6.04 | 40.7 | 34.6 | 43.3 | 69.4 | 54.3 | 82.5 | 24 | 27.3 | 97.3 | 13 | 70.2 | 41.8 | 12.7 | 78 | 71.6 | 39.4 | 36.6 | 52 | inhibition at 10 µM (NCI-H522): 46.1%; inhibition at 10 µM (NCI/ADR-RES): 51.5%; inhibition at 10 µM (OVCAR-3): 13.9%; inhibition at 10 µM (OVCAR-4): 50.1%; inhibition at 10 µM (SK-MEL-28): 3.12%; inhibition at 10 µM (SN12C): 51%; inhibition at 10 µM (SNB-75): 21.2%; inhibition at 10 µM (UO-31): 60%; inhibition at 10 µM (SF-268): 16.6%; inhibition at 10 µM (IGROV1): 47.3%; % Inhibition at 10 µM (HCT-116 [3]): 58.56 ± 3.21%; IC50 (HCT-116 [3]): 4.96 ± 0.02 µM |
| Fc1ccc(CNc2c3ccccc3nc3ccccc23)c(F)c1 [Compound 21, Acridin-9-yl-(2,4-difluorobenzyl)-amine] | > 10 | 31.9 ± 8.01 | 56.4 | 52.4 | 59.9 | 76.5 | 64.7 | 85.8 | 41.7 | 42.8 | 103 | 24.6 | 89.8 | 55.6 | 33.5 | 104 | 76.2 | 57.2 | 50.8 | 80 | inhibition at 10 µM (NCI-H522): 57.7%; inhibition at 10 µM (NCI/ADR-RES): 63.8%; inhibition at 10 µM (OVCAR-3): 29.8%; inhibition at 10 µM (OVCAR-4): 108%; inhibition at 10 µM (SK-MEL-28): 9.61%; inhibition at 10 µM (SN12C): 62.8%; inhibition at 10 µM (SNB-75): 18.9%; inhibition at 10 µM (UO-31): 69.7%; inhibition at 10 µM (SF-268): 31.4%; inhibition at 10 µM (IGROV1): 64.3%; % Inhibition at 10 µM (HCT-116 [3]): 67.37 ± 0.67%; IC50 (HCT-116 [3]): 3.95 ± 0.82 µM |
| c1ccc(CCNc2c3ccccc3nc3ccccc23)cc1 [Compound 23, Acridin-9-yl-phenethyl-amine] | 6.68 ± 1.1 | 57.3 ± 3.58 | 60.7 | 61.9 | 67.3 | 78.4 | 69.7 | 83.5 | 58.7 | 44.9 | 102 | 26.7 | 87.8 | 56.7 | 44.7 | 111 | 75.4 | 61.4 | 53.4 | 84.7 | inhibition at 10 µM (NCI-H522): 60.2%; inhibition at 10 µM (NCI/ADR-RES): 66.5%; inhibition at 10 µM (OVCAR-3): 29%; inhibition at 10 µM (OVCAR-4): 65%; inhibition at 10 µM (SK-MEL-28): 32.3%; inhibition at 10 µM (SN12C): 66.9%; inhibition at 10 µM (SNB-75): 32.4%; inhibition at 10 µM (UO-31): 75.8%; inhibition at 10 µM (SF-268): 33.5%; inhibition at 10 µM (IGROV1): 72%; % Inhibition at 10 µM (HCT-116 [3]): 40.12 ± 0.11% |
| c1csc(-c2ccc(CNc3c4ccccc4nc4ccccc34)cc2)c1 [Compound 24, Acridin-9-yl-(4-thiophen-2-yl-benzyl)-amine] | > 10 | 42.9 ± 5.35 | 96.9 | 70 | 73.3 | 41.4 | 64.5 | 183 | 157 | 45.4 | 102 | 39.4 | 163 | 61.7 | 183 | 173 | 98 | 61.8 | 49.4 | 87.1 | inhibition at 10 µM (NCI-H522): 71.1%; inhibition at 10 µM (NCI/ADR-RES): 88.8%; inhibition at 10 µM (OVCAR-3): 90.5%; inhibition at 10 µM (OVCAR-4): 84.7%; inhibition at 10 µM (SK-MEL-28): 186%; inhibition at 10 µM (SN12C): 36.8%; inhibition at 10 µM (SNB-75): 63.9%; inhibition at 10 µM (UO-31): 72%; inhibition at 10 µM (SF-268): 37.1%; inhibition at 10 µM (IGROV1): 90%; % Inhibition at 10 µM (HCT-116 [3]): 57.14 ± 3.10%; IC50 (HCT-116 [3]): 7 ± 0.56 µM |
